Data taken from ChEMBL document CHEMBL1201862, “PubChem BioAssay data set” (2004).
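Assay format: 96-well plates, 48-hour exposure. Here, GI50 denotes the concentration required for 50% inhibition of growth.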 Active and inactive are the calls of the source. Rule as the data show it: active = GI50 up to about 1.1 µM and inactive = higher.

How the values were obtained:
Assay in all cases: DTP human tumour cell line panel, 48 h
DLD-1 = system: DLD-1
DMS-114 = system: DMS-114
DMS-273 = system: DMS-273
KM-20L2 = system: KM-20L2
LXFL 529 = system: LXFL 529
M19-MEL = system: M19-MEL
RXF 631 = system: RXF 631
SNB-78 = system: SNB-78
XF498 = system: XF498

Row | SMILES | GI50 (DLD-1) | GI50 (DMS-114) | GI50 (DMS-273) | GI50 (KM-20L2) | GI50 (LXFL 529) | GI50 (M19-MEL) | GI50 (RXF 631) | GI50 (SNB-78) | GI50 (XF498)
1 | O=c1nc(NC2CCCCO2)ccn1CCO (stereo not given) | > 100 µM (inactive) | > 100 µM (inactive) | > 100 µM (inactive) | > 100 µM (inactive) | > 100 µM (inactive) | > 100 µM (inactive) | > 100 µM (inactive) | > 100 µM (inactive) | 51.4 µM (inactive)
2 | CCn1c(C)nn2c(=O)c3ccccc3nc2c1=O | > 100 µM (inactive) | > 100 µM (inactive) | > 100 µM (inactive) | > 100 µM (inactive) | > 100 µM (inactive) | > 100 µM (inactive) | – | > 100 µM (inactive) | > 100 µM (inactive)
3 | N#Cc1ccccc1NC(=O)/C(=N\Nc1ccc([N+](=O)[O-])cc1)C1C(=O)NC(=O)NC1=O | > 100 µM (inactive) | > 100 µM (inactive) | – | > 100 µM (inactive) | > 100 µM (inactive) | > 100 µM (inactive) | – | > 100 µM (inactive) | –
4 | C=C(CN(C)C)C(=O)c1ccccc1C | 20.9 µM (inactive) | 21.2 µM (inactive) | 24.5 µM (inactive) | > 67.1 µM (inactive) | 15.7 µM (inactive) | 23.4 µM (inactive) | > 100 µM (inactive) | > 100 µM (inactive) | > 50.9 µM (inactive)
5 | CC1=NN(c2ccccc2)C(=O)C1/N=N/c1ccc(Br)cc1C (stereo not given) | > 100 µM (inactive) | > 100 µM (inactive) | > 100 µM (inactive) | 0.634 µM (active) | > 100 µM (inactive) | > 100 µM (inactive) | 32.4 µM (inactive) | 79.6 µM (inactive) | –
6 | CC(C)c1ccc(O)c(Cc2cc(C(C)C)cc(Cc3cc(C(C)C)ccc3O)c2O)c1 | 2.01 µM (inactive) | 1.61 µM (inactive) | – | 2.07 µM (inactive) | 1.49 µM (inactive) | 1.61 µM (inactive) | – | 2.05 µM (inactive) | 1.41 µM (inactive)
7 | O=C(c1ccc(Cl)cc1)N(C(=S)N1CCN(c2ccccc2)CC1)C1CCCCC1 | > 100 µM (inactive) | 70 µM (inactive) | 46.9 µM (inactive) | > 100 µM (inactive) | > 100 µM (inactive) | > 100 µM (inactive) | – | > 100 µM (inactive) | –
8 | CCCCCCCCC/C=C1\CCC(CN2CCOCC2)C1=O (stereo not given) | 1.96 µM (inactive) | 2.92 µM (inactive) | 2.32 µM (inactive) | 7.35 µM (inactive) | 1.6 µM (inactive) | 3.28 µM (inactive) | 5.62 µM (inactive) | 4.29 µM (inactive) | –
9 | CCN(CC)c1ccc(/N=N/c2ccc(-c3nc4ccc[n+](C)c4o3)cc2)cc1 | 7.33 µM (inactive) | 3.7 µM (inactive) | 10.5 µM (inactive) | 13 µM (inactive) | 3.81 µM (inactive) | 4.98 µM (inactive) | 12.7 µM (inactive) | 11.4 µM (inactive) | 11.3 µM (inactive)
10 | OC(C1CO1)C(O)C1CO1 (stereo not given) | > 150 µM (inactive) | 35.6 µM (inactive) | 8.81 µM (inactive) | 140 µM (inactive) | – | 74.8 µM (inactive) | – | 85.9 µM (inactive) | 37.2 µM (inactive)
11 | O=C(Nc1c(Cl)cc([N+](=O)[O-])cc1Cl)C(=O)C(C(=O)c1ccncc1)C1OC(=O)c2ccccc21 (stereo not given) | > 100 µM (inactive) | > 100 µM (inactive) | > 100 µM (inactive) | > 100 µM (inactive) | > 100 µM (inactive) | > 100 µM (inactive) | > 100 µM (inactive) | > 100 µM (inactive) | > 100 µM (inactive)
12 | Cc1cc2c(cc1C)[n+]([O-])c(C(=O)CC(=O)C(=O)Nc1ccccc1C(C)C)c(C)[n+]2[O-] | – | > 100 µM (inactive) | > 100 µM (inactive) | > 100 µM (inactive) | > 100 µM (inactive) | > 100 µM (inactive) | > 100 µM (inactive) | > 100 µM (inactive) | > 100 µM (inactive)
13 | COC(=O)c1ccccc1N(C(=O)c1ccccc1)c1ccccc1C | 43 µM (inactive) | 38.6 µM (inactive) | 47.1 µM (inactive) | 73.8 µM (inactive) | 85.5 µM (inactive) | 48.2 µM (inactive) | – | – | 22.7 µM (inactive)
14 | O=[N+]([O-])c1ccc(Cl)c(C2CC(c3cccc4ccccc34)=Nc3ccccc3S2)c1 (stereo not given) | 13.2 µM (inactive) | 20.2 µM (inactive) | 20.4 µM (inactive) | 29.3 µM (inactive) | 18.5 µM (inactive) | 20.2 µM (inactive) | > 65 µM (inactive) | 26.5 µM (inactive) | –
15 | O=C(/C=C1\NC(=O)c2ccccc2N1)c1ccncc1 | > 100 µM (inactive) | > 100 µM (inactive) | – | – | – | > 100 µM (inactive) | – | > 100 µM (inactive) | –
16 | O=c1c2cc(Cl)ccc2sc2cccc(Cl)c12 | – | – | > 100 µM (inactive) | > 100 µM (inactive) | > 100 µM (inactive) | > 100 µM (inactive) | > 100 µM (inactive) | > 100 µM (inactive) | –
17 | c1ccc2c3c([nH]c2c1)C1C2CCCCN2C(c2ccncc2)N1CC3 (stereo not given) | – | 27.2 µM (inactive) | 28.6 µM (inactive) | 24 µM (inactive) | 38.1 µM (inactive) | 37.2 µM (inactive) | – | 42.8 µM (inactive) | 23.6 µM (inactive)
18 | CCOC(=O)Nc1ccc(S(=O)(=O)OC)cc1.CCOC(=O)Nc1ccc(S(=O)(=O)OC)cc1.NNC(=O)c1ccncc1 | 9.04 µM (inactive) | > 50 µM (inactive) | > 50 µM (inactive) | > 50 µM (inactive) | > 50 µM (inactive) | > 50 µM (inactive) | > 50 µM (inactive) | > 50 µM (inactive) | –
19 | COC(=O)CC(C(C(=O)OC)C(=O)OC)N1C(=O)OCC1c1ccccc1 (stereo not given) | > 100 µM (inactive) | – | 97.1 µM (inactive) | > 100 µM (inactive) | > 100 µM (inactive) | > 100 µM (inactive) | > 100 µM (inactive) | – | > 100 µM (inactive)
20 | COc1ccccc1/C=C1\CCC(CCN(C)C)(C2=CCCC2)C1=O (stereo not given) | 16.8 µM (inactive) | 17.3 µM (inactive) | 17.5 µM (inactive) | 1.7 µM (inactive) | 16.1 µM (inactive) | 17.9 µM (inactive) | 13.9 µM (inactive) | 23.9 µM (inactive) | 16.5 µM (inactive)
21 | O=C1N[C@H]2[C@H](O)[C@H](O)[C@@H](O)[C@H](O)[C@@H]2c2cc3c(c(O)c21)OCO3 [PANCRATISTATIN] | 0.0415 µM (active) | 0.0412 µM (active) | 0.0826 µM (active) | 0.0445 µM (active) | 0.541 µM (active) | 0.0388 µM (active) | 0.649 µM (active) | 0.0452 µM (active) | 0.0237 µM (active)
